Results published in US20220226265A1, “METHODS OF CONTROLLING MYOCARDIAL BLOOD FLOW” (UNIVERSITY OF LOUISVILLE RESEARCH FOUNDATION, INC., priority 2021, published 2022).

Tested on: WT and Kvβ2−/− mice
Test: Arterial blood pressure (femoral artery catheter) during norepinephrine infusion
Format: in vivo, mouse
Settings: norepinephrine infusion 5 μg/kg·min−1
From the text: In vivo measurements of cardiac function and myocardial blood flow: Mice were anesthetized with 3% isoflurane and supplemental O2, administered (1 L·min^−1) in a small induction chamber. After induction, the mice were placed on a controlled heating table in a supine position. Anesthesia was maintained throughout the procedure by delivery of 1-2% isoflurane and supplemental O2 (0.5 L·min^−1). The extremities were secured to the surgical table by tape and a lubricated probe was inserted rectally to monitor body temperature. The chest, neck, and hind limb hair were then removed using a depilatory agent, the skin was rinsed with warm water, and the neck area was disinfected with 70% ethanol/betadine and an incision (10-15 mm) was made at the right side of the neck. […]
Measurements of cardiac function, myocardial perfusion, and arterial blood pressure were performed at baseline, after administration of hexamethonium (5 mg·kg^−1, i.v.), and following successive doses of norepinephrine (0.5, 1.0, 2.5, and 5.0 μg·kg^−1·min^−1; 3 min duration each dose, followed by 3-5 min washout). […] Left ventricular volume at end diastole (LVEDV) and end systole (LVESV), as well left ventricular internal diameter at end diastole (LVID,d) and end systole (LVID,s) were measured at steady state after drug infusions. […]

Question: Which “time of infusion after which norepinephrine-induced elevation of pressure declined” value (Kvβ2−/− mice) does the source give for `NC[C@H](O)c1ccc(O)c(O)c1` [norepinephrine] here?
Answer: ~40 s

Question: What about the “increase in arterial blood pressure” value (WT animals) of the same compound?
Answer: sustained for the duration of drug administration
